# Data published in US7179830B2, “Substituted thienoimidazoles useful for disease treatment and prevention” (Sanofi-aventis Deutschland GmbH, priority 2003, dated 2007).
# Structures can show the parent of a compound that is named as a salt.
# Key:
# Assay type in all cases: cell-based
# NHE3 = biological target: T1, NHE3 (Homo sapiens, UniProt P48764); experiment: Determination of the NHE inhibition: recovery of intracellular pH after acidification (BCECF fluorescence), NHE3; conditions: for IC50: pH recovery registered at three minutes
# T1 construct: host or cells: cells, not specified
# T1 sequence (P48764 26-834): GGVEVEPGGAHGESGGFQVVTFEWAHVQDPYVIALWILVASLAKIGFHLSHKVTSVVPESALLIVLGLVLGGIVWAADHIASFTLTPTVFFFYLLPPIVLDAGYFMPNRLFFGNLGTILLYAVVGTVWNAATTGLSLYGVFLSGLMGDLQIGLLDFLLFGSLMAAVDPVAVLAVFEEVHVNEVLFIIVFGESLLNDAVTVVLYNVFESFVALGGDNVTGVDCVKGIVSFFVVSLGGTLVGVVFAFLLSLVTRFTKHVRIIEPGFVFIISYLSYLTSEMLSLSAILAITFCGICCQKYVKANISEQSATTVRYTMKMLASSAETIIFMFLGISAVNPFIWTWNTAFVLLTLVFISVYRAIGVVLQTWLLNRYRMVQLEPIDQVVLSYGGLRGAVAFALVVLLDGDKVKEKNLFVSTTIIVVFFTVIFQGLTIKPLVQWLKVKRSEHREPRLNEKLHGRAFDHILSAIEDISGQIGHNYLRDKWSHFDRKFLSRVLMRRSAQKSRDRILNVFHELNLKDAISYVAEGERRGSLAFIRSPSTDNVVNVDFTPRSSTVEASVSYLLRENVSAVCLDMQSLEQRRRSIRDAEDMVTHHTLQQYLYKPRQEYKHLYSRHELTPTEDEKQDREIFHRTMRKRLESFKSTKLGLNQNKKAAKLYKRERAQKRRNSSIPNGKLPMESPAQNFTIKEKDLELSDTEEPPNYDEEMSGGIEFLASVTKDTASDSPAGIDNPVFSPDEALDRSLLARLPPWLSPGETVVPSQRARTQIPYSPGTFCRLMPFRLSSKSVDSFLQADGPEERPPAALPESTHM
# Protocol: [drawing 14] is obtained by adding saturated sodium hydrogencarbonate solution to a suspension of 306 mg of 2-(2-chloro-4-methyl-3-thienylamino)-1H-thieno[3,4-d]imidazole hydrochloride (example 5) in 40 ml of water, in the course of which a pH of 10 is established. After the suspension had been stirred at room temperature for 1 hour, the solid was filtered off and washed repeatedly with water, and the product was dried in an air stream. Colorless crystalline product, decomposition point from 180° C. Pharmacological Data: Determination of the NHE Inhibition Test Description:
# This test determined the recovery of the intracellular pH (pHi) after acidification, and this recovery occurs in the case of functional NHE even under bicarbonate-free conditions. To this end, the pHi was determined using the pH-sensitive fluorescent dye BCECF (Calbiochem, the BCECF-AM precursor is used). The cells were initially loaded with BCECF. The BCECF fluorescence was determined in a Ratio Fluorescence Spectrometer (Photon Technology International, South Brunswick, N.J., USA) at excitation wavelengths of 505 and 440 nm and an emission wavelength of 535 nm and converted to the pHi by means of calibration curves. The cells had already been incubated in NH4Cl buffer (pH 7.4) in the course of the BCECF loading (NH4Cl buffer: 115 mM NaCl, 20 mM NH4Cl, 5 mM KCl, 1 mM CaCl2, 1 mM MgSO4, 20 mM Hepes, 5 mM glucose, 1 mg/ml BSA; a pH of 7.4 is established using 1 M NaOH). The intracellular acidification is induced by adding 975 μl of an NH4Cl-free buffer (see below) to 25 μl aliquots of the cells incubated in NH4Cl buffer. The subsequent rate of the pH recovery was registered at two minutes for NHE1, at five minutes for NHE2 and at three minutes for NHE3. For the calculation of the inhibitory potency of the tested substances, the cells were initially investigated in buffers in which complete or absolutely no pH recovery took place. For complete pH recovery (100%), the cells were incubated in Na^+-containing buffer (133.8 mM NaCl, 4.7 mM KCl, 1.25 mM CaCl2, 1.25 mM MgCl2, 0.97 mM Na2HPO4, 0.23 mM NaH2PO4, 5 mM Hepes, 5 mM glucose, a pH of 7.0 is established using 1 M NaOH). For the determination of the 0% value, the cells were incubated in an Na^+-free buffer (133.8 mM choline chloride, 4.7 mM KCl, 1.25 mM CaCl2, 1.25 mM MgCl2, 0.97 mM K2HPO4, 0.23 mM KH2PO4, 5 mM Hepes, 5 mM glucose, a pH of 7.0 is established using 1 M KOH). The substances to be tested were made up in the Na^+-containing buffer. The recovery of the intracellular pH at each tested concentration of a substance was expressed in percent of the maximum recovery. The percentages of the pH recovery were used to calculate the IC50 value of the particular substance for the individual NHE subtypes by means of the program Sigma-Plot.
# NHE5 = biological target: T2, NHE5 (Homo sapiens, UniProt Q14940); experiment: NHE inhibition, NHE5 subtype; conditions: in a therapeutically utilizable concentration range
# T2 sequence (Q14940 1-896): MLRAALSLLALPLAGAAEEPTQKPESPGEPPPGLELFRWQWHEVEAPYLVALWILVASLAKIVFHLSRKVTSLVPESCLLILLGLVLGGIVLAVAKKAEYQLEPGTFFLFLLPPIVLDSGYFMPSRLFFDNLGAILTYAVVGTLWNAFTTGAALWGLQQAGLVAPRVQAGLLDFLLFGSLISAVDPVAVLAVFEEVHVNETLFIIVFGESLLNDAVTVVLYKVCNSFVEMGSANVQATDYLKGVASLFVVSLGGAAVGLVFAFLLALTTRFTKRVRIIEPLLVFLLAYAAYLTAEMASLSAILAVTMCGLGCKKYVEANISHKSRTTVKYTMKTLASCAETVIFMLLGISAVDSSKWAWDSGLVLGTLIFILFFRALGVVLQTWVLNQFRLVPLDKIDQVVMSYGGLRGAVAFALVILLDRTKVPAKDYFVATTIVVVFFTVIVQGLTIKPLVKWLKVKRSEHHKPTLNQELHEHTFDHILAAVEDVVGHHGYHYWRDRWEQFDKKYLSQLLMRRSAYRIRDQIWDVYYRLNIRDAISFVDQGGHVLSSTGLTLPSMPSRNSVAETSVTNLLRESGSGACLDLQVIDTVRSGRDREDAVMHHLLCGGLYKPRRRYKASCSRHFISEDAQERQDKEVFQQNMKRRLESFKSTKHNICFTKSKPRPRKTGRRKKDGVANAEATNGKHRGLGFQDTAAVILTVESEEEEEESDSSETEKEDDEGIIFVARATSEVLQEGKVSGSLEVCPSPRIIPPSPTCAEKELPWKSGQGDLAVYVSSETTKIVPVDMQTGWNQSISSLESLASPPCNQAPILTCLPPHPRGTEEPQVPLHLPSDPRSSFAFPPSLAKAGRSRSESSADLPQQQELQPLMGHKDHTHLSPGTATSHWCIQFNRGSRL
# NHE2 = biological target: T3, NHE2 (Homo sapiens, UniProt Q9UBY0); experiment: NHE inhibition, NHE2 subtype; conditions: in a therapeutically utilizable concentration range
# T3 sequence (Q9UBY0 1-812): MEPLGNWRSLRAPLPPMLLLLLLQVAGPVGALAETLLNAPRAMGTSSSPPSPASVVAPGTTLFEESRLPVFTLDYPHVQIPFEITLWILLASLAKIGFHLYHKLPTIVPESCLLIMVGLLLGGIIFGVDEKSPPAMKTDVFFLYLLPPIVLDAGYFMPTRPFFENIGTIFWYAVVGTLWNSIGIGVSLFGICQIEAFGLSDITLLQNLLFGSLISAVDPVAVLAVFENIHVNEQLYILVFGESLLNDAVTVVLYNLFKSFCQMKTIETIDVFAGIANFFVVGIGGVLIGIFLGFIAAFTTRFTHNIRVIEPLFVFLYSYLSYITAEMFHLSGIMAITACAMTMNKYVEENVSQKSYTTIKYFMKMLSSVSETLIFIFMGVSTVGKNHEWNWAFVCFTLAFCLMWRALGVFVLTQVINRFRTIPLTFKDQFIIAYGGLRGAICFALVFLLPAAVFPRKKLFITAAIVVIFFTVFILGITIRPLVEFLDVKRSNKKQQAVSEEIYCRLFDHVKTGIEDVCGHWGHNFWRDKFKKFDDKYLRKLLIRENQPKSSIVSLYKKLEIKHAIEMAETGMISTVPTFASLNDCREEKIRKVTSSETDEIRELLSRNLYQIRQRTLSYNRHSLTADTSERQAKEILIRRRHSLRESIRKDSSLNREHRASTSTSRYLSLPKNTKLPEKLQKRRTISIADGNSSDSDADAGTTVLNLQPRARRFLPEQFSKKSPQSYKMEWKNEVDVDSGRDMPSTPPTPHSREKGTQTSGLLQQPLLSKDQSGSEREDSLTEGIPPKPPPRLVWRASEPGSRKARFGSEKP
# Protocol: (§1) This test determined the recovery of the intracellular pH (pHi) after acidification, and this recovery occurs in the case of functional NHE even under bicarbonate-free conditions. To this end, the pHi was determined using the pH-sensitive fluorescent dye BCECF (Calbiochem, the BCECF-AM precursor is used). The cells were initially loaded with BCECF. The BCECF fluorescence was determined in a Ratio Fluorescence Spectrometer (Photon Technology International, South Brunswick, N.J., USA) at excitation wavelengths of 505 and 440 nm and an emission wavelength of 535 nm and converted to the pHi by means of calibration curves. The cells had already been incubated in NH4Cl buffer (pH 7.4) in the course of the BCECF loading (NH4Cl buffer: 115 mM NaCl, 20 mM NH4Cl, 5 mM KCl, 1 mM CaCl2, 1 mM MgSO4, 20 mM Hepes, 5 mM glucose, 1 mg/ml BSA; a pH of 7.4 is established using 1 M NaOH). The intracellular acidification is induced by adding 975 μl of an NH4Cl-free buffer (see below) to 25 μl aliquots of the cells incubated in NH4Cl buffer. The subsequent rate of the pH recovery was registered at two minutes for NHE1, at five minutes for NHE2 and at three minutes for NHE3. For the calculation of the inhibitory potency of the tested substances, the cells were initially investigated in buffers in which complete or absolutely no pH recovery took place. […]
# NHE1 = NHE1 (Homo sapiens, UniProt P19634); experiment: NHE inhibition, NHE1 subtype; conditions: in a therapeutically utilizable concentration range
# Protocol: as §1
# NHE1, sequence (P19634 whole entry, species assumed): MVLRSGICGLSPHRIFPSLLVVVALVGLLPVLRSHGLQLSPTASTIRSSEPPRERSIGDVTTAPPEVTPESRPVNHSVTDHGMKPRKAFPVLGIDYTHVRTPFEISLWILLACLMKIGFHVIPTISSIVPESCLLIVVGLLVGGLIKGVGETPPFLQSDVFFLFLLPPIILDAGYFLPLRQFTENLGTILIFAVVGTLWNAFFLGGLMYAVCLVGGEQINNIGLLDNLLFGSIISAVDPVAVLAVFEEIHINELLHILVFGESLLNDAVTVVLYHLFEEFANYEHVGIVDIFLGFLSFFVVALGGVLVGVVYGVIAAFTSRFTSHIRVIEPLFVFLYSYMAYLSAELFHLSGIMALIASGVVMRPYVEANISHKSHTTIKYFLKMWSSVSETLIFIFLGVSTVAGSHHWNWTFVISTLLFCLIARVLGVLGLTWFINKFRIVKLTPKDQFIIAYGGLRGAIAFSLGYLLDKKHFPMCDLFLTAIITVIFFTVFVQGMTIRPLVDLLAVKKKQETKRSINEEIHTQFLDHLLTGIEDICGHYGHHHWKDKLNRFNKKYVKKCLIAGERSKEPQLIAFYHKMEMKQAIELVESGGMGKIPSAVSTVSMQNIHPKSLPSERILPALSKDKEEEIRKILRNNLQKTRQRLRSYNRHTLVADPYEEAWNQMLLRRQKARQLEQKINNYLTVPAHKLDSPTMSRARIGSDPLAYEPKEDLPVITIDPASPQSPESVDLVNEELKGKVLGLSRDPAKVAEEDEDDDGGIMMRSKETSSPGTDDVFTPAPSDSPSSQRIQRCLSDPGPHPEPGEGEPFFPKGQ
Structure (SMILES),IC50 (NHE3) [nM],also measured
"Clc1cccc(Cl)c1Nc1nc2cscc2[nH]1 [Example 2, 2-(2,6-Dichlorophenylamino)-1H-thieno[3,4-d]imidazole hydrochloride]",220,
"Cc1csc(Cl)c1Nc1nc2cscc2[nH]1 [Example 5, 2-(2-Chloro-4-methyl-3-thienylamino)-1H-thieno[3,4-d]imidazole hydrochloride]",150,
"FC(F)(F)c1ccccc1Nc1nc2cscc2[nH]1 [Example 6, 2-(2-Trifluoromethylphenylamino)-1H-thieno[3,4-d]imidazole hydrochloride]",6510,
"Cc1cccc(Cl)c1Nc1nc2cscc2[nH]1 [Example 9, 2-(2-Chloro-6-methylphenylamino)-1H-thieno[3,4-d]imidazole hydrochloride]",1430,
"Clc1csc(Cl)c1Nc1nc2cscc2[nH]1 [Example 10, 2-(2,4-Dichloro-3-thienylamino)-1H-thieno[3,4-d]imidazole hydrochloride]",320,
Cc1csc(Cl)c1NC1=NCCN1 [tiamenidine],,inhibitory action on NHE5 (NHE5): no relevant inhibitory actions; inhibitory action on NHE2 (NHE2): no relevant inhibitory actions; inhibitory action on NHE1 (NHE1): no relevant inhibitory actions; inhibitory action on NHE3 (NHE3; in a therapeutically utilizable concentration range): no relevant inhibitory actions
